According to US20230167073A1 (Teijin Pharma Limited, priority 2020, published 2023):

target: T1, Human TRPC6 (Homo sapiens, UniProt Q9Y210); test: Evaluation of TRPC6 channel inhibitory activity (1), FLIPR Calcium 5 Assay Kit, OAG stimulation (Compound Nos. 1-1293); assay type: cell-based; details: Human TRPC6 stably-expressing cells, OAG 30 μM, FLIPR Calcium 5 Assay Kit; read-out: Inhibitory activity (pIC50 class) (converted)
T1 construct: expressed in transfected cells
T1 sequence (Q9Y210 1-931): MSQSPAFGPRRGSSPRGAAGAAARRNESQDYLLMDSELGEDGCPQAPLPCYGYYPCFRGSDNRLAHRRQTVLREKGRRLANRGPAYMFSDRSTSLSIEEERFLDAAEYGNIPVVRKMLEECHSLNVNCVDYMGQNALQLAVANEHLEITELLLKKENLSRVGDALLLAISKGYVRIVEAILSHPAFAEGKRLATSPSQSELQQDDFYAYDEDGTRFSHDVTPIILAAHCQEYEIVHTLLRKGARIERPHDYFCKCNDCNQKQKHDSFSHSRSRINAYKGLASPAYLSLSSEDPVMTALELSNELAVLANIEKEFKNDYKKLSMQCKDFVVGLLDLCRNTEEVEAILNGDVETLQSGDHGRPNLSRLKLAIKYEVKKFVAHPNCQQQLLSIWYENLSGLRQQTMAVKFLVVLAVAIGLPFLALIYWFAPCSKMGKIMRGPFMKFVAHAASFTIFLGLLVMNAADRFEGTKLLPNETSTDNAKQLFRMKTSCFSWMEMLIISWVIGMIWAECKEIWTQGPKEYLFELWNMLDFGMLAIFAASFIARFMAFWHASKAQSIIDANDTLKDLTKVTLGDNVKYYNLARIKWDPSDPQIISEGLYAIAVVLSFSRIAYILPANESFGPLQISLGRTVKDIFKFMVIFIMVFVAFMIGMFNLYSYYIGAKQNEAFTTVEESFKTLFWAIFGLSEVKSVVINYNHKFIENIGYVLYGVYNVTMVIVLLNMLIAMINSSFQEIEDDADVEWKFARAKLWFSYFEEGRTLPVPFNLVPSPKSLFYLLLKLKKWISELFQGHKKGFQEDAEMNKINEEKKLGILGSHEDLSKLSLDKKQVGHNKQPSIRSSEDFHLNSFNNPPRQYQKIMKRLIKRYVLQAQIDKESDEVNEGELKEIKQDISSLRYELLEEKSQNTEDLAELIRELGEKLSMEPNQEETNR
Procedure: Evaluation of TRPC6 Channel Inhibitory Activity (1) (Compound Nos. 1-1293)
In order to investigate TRPC6 channel inhibitory activity of the compounds, evaluation was conducted using FLIPR® Calcium 5 Assay Kit (Molecular Devices) in accordance with the following procedure. Human TRPC6 stably-expressing cells were seeded in a 384-well black clear bottom plate at a density of 5×10^3/well and cultured in an incubator at 37° C. 5% CO2 for 24 hours. Thereafter, 25 μL of a Non Wash Dye Solution, prepared using Component A, 20 mM HEPES-HBSS and 250 mM probenecid, all of which are included in the kit, was added to each well, and the plate was incubated for 30 minutes. A volume of 12.5 μL of a compound solution was added into each well while the fluorescence was measured with FLIPR tetra. After 20 minutes, 12.5 μL of a 1-oleoyl-2-acetyl glycerol (OAG) solution was added at a final concentration of 30 μM. The difference between the minimum fluorescence intensity before the addition of the compound and the maximum fluorescence intensity after the addition of OAG was defined as a signal. An inhibition rate was calculated, assuming the average signal of wells without the compound as the inhibition rate of 0% and the average signal of wells without the compound and OAG as the inhibition rate of 100%. The calculated inhibition rate was analyzed by a four-parameter logistic regression to quantify the inhibition rate in the logarithm of the inverse of the effective concentration which gives a 50% inhibition rate (pIC50). The intensity was expressed by the following symbols (+, ++, +++).

SMILES	IC50 [nM]
Cc1nc(Oc2cc(C#N)ccc2-c2ccc(CCN)cc2)cc(N2CC(F)(F)C(F)(F)C2)n1 [Compound 26, 4-[4-(2-aminoethyl)phenyl]-3-[2-methyl-6-(3,3,4,4-tetrafluoropyrrolidin-1-yl)pyrimidin-4-yl]oxybenzonitrile]	< 10
Cc1nc(Oc2cc(C#N)ccc2-c2ccc(CCN)cc2)cc(N2CCCCCC2)n1 [Compound 27, 4-[4-(2-aminoethyl)phenyl]-3-[6-(azepan-1-yl)-2-methylpyrimidin-4-yl]oxybenzonitrile]	10 to 1000
Cc1nc(Oc2cc(C#N)ccc2-c2ccc(CCN)cc2)cc(-c2cccn2C)n1 [Compound 28, 4-[4-(2-aminoethyl)phenyl]-3-[2-methyl-6-(1-methylpyrrol-2-yl)pyrimidin-4-yl]oxybenzonitrile]	10 to 1000
Cc1nc(Oc2cc(C#N)ccc2-c2ccc(CCN)cc2)cc(-c2ccn(C)c2)n1 [Compound 29, 4-[4-(2-aminoethyl)phenyl]-3-[2-methyl-6-(1-methylpyrrol-3-yl)pyrimidin-4-yl]oxybenzonitrile]	10 to 1000
Cc1nc(Oc2cc(C#N)ccc2-c2ccc(CCN)cc2)cc(-c2cscn2)n1 [Compound 30, 4-[4-(2-aminoethyl)phenyl]-3-[2-methyl-6-(1,3-thiazol-4-yl)pyrimidin-4-yl]oxybenzonitrile]	< 10
Cc1nc(Oc2cc(C#N)ccc2-c2ccc(CCN)cc2)cc(N2CCCOCC2)n1 [Compound 31, 4-[4-(2-aminoethyl)phenyl]-3-[2-methyl-6-(1,4-oxazepan-4-yl)pyrimidin-4-yl]oxybenzonitrile]	10 to 1000
Cc1nc(Oc2cc(C#N)ccc2-c2ccc(CCN)cc2)cc(-c2ccsc2)n1 [Compound 32, 4-[4-(2-aminoethyl)phenyl]-3-(2-methyl-6-thiophen-3-ylpyrimidin-4-yl)oxybenzonitrile]	< 10
Cc1nc(Oc2cc(C#N)ccc2-c2ccc(CCN)cc2)cc(-c2cccs2)n1 [Compound 33, 4-[4-(2-aminoethyl)phenyl]-3-(2-methyl-6-thiophen-2-ylpyrimidin-4-yl)oxybenzonitrile]	< 10
Cc1nc(Oc2cc(C#N)ccc2-c2ccc(CCN)cc2)cc(-c2ncco2)n1 [Compound 34, 4-[4-(2-aminoethyl)phenyl]-3-[2-methyl-6-(1,3-oxazol-2-yl)pyrimidin-4-yl]oxybenzonitrile]	10 to 1000
Cc1nc(OCC(F)(F)F)cc(Oc2cc(C#N)ccc2-c2ccc(CCN)cc2)n1 [Compound 35, 4-[4-(2-aminoethyl)phenyl]-3-[2-methyl-6-(2,2,2-trifluoroethoxy)pyrimidin-4-yl]oxybenzonitrile]	10 to 1000
Cc1nc(OCCCF)cc(Oc2cc(C#N)ccc2-c2ccc(CCN)cc2)n1 [Compound 36, 4-[4-(2-aminoethyl)phenyl]-3-[6-(3-fluoropropoxy)-2-methylpyrimidin-4-yl]oxybenzonitrile]	10 to 1000
Cc1nc(OCCC(F)(F)F)cc(Oc2cc(C#N)ccc2-c2ccc(CCN)cc2)n1 [Compound 37, 4-[4-(2-aminoethyl)phenyl]-3-[2-methyl-6-(3,3,3-trifluoropropoxy)pyrimidin-4-yl]oxybenzonitrile]	> 1000
CCCCOc1cc(Oc2cc(C#N)ccc2-c2ccc(CCN)cc2)nc(C)n1 [Compound 38, 4-[4-(2-aminoethyl)phenyl]-3-(6-butoxy-2-methylpyrimidin-4-yl)oxybenzonitrile]	> 1000
Cc1nc(OCC2CCCCC2)cc(Oc2cc(C#N)ccc2-c2ccc(CCN)cc2)n1 [Compound 39, 4-[4-(2-aminoethyl)phenyl]-3-[6-(cyclohexylmethoxy)-2-methylpyrimidin-4-yl]oxybenzonitrile]	> 1000
Cc1nc(Oc2cc(C#N)ccc2-c2ccc(CCN)cc2)cc(-c2nccs2)n1 [Compound 40, 4-[4-(2-aminoethyl)phenyl]-3-[2-methyl-6-(1,3-thiazol-2-yl)pyrimidin-4-yl]oxybenzonitrile]	> 1000
Cc1nc(OCCC(C)C)cc(Oc2cc(C#N)ccc2-c2ccc(CCN)cc2)n1 [Compound 41, 4-[4-(2-aminoethyl)phenyl]-3-[2-methyl-6-(3-methylbutoxy)pyrimidin-4-yl]oxybenzonitrile]	> 1000
Cc1nc(OCCC(C)(C)C)cc(Oc2cc(C#N)ccc2-c2ccc(CCN)cc2)n1 [Compound 42, 4-[4-(2-aminoethyl)phenyl]-3-[6-(3,3-dimethylbutoxy)-2-methylpyrimidin-4-yl]oxybenzonitrile]	> 1000
Cc1nc(OCC2CCC2)cc(Oc2cc(C#N)ccc2-c2ccc(CCN)cc2)n1 [Compound 43, 4-[4-(2-aminoethyl)phenyl]-3-[6-(cyclobutylmethoxy)-2-methylpyrimidin-4-yl]oxybenzonitrile]	10 to 1000
Cc1nc(OCC2CCCC2)cc(Oc2cc(C#N)ccc2-c2ccc(CCN)cc2)n1 [Compound 44, 4-[4-(2-aminoethyl)phenyl]-3-[6-(cyclopentylmethoxy)-2-methylpyrimidin-4-yl]oxybenzonitrile]	> 1000
Cc1nc(Oc2cc(C#N)ccc2-c2ccc(CCN)cc2)cc(OC2CCCC2)n1 [Compound 45, 4-[4-(2-aminoethyl)phenyl]-3-(6-cyclopentyloxy-2-methylpyrimidin-4-yl)oxybenzonitrile]	10 to 1000
Cc1nc(Oc2cc(C#N)ccc2-c2ccc(CCN)cc2)cc(C2CCCC2)n1 [Compound 46, 4-[4-(2-aminoethyl)phenyl]-3-(6-cyclopentyl-2-methylpyrimidin-4-yl)oxybenzonitrile]	< 10
Cc1nc(OCC(C)(C)C)cc(Oc2cc(C#N)ccc2-c2ccc(CCN)cc2)n1 [Compound 47, 4-[4-(2-Aminoethyl)phenyl]-3-[6-(2,2-dimethylpropoxy)-2-methylpyrimidin-4-yl]oxybenzonitrile]	10 to 1000
COCCOc1cc(Oc2cc(C#N)ccc2-c2ccc(CCN)cc2)nc(C)n1 [Compound 48, 4-[4-(2-aminoethyl)phenyl]-3-[6-(2-methoxyethoxy)-2-methylpyrimidin-4-yl]oxybenzonitrile]	10 to 1000
Cc1nc(OCC2(C)CC2)cc(Oc2cc(C#N)ccc2-c2ccc(CCN)cc2)n1 [Compound 49, 4-[4-(2-aminoethyl)phenyl]-3-[2-methyl-6-[(1-methylcyclopropyl)methoxy]pyrimidin-4-yl]oxybenzonitrile]	10 to 1000
N#Cc1ccc(-c2ccc(CCN)cc2)c(Oc2cnnc(N3CCOCC3)c2)c1 [Compound 50, 4-[4-(2-aminoethyl)phenyl]-3-(6-morpholin-4-ylpyridazin-4-yl)oxybenzonitrile]	< 10
N#Cc1ccc(-c2ccc(C(O)CN)cc2)c(Oc2cnnc(N3CCOCC3)c2)c1 (centres unmarked) [Compound 51, 4-[4-(2-amino-1-hydroxyethyl)phenyl]-3-(6-morpholin-4-ylpyridazin-4-yl)oxybenzonitrile]	> 1000
Cc1nc(Oc2cc(C#N)ccc2-c2ccc(C3CNC3)cc2)cc(N2CCOCC2)n1 [Compound 52, 4-[4-(azetidin-3-yl)phenyl]-3-(2-methyl-6-morpholin-4-ylpyrimidin-4-yl)oxybenzonitrile]	10 to 1000
Cc1nc(Oc2cc(C#N)ccc2-c2ccc(C3CCNC3)cc2)cc(N2CCOCC2)n1 (centres unmarked) [Compound 53, 3-(2-methyl-6-morpholin-4-ylpyrimidin-4-yl)oxy-4-(4-pyrrolidin-3-ylphenyl)benzonitrile]	10 to 1000
CCOC(=O)CCNCCc1ccc(-c2ccc(C#N)cc2Oc2cc(N3CCOCC3)nc(C)n2)cc1 [Compound 54, ethyl 3-[2-[4-[4-cyano-2-(2-methyl-6-morpholin-4-ylpyrimidin-4-yl)oxyphenyl]phenyl]ethylamino] propanoate]	> 1000
